# How the values were obtained:
# PDGFR = molecular target: T1, PDGFR (Homo sapiens, UniProt P09619); assay: Assay for modulation of PDGFR activity (ELISA); type: biochemical; conditions: read-out: bio PDGFR IC50
# T1 construct: expressed in transfected cells; host or cells: NIH3T3
# Protocol: Using the following reagents, supplies, and methods, the ability of the compounds of the invention to modulate the in vitro activity of the PDGFR can be readily determined in an enzyme-linked immunosorbent assay (ELISA).
# Monoclonal anti-PDGFR antibody (28D4C10) is stored at −20° C. in 50 mL tubes prior to use.
# Lysates from PDGFR-β expressing NIH3T3 cells are obtained and stored at −80° C. in 1 mL aliquots. PDGFR-β expression in eukaryotic cells is well known in the art. Lysates are prepared by the following method. Place carrier dishes in ice trays, and after cooling, remove the media and replace with ice cold PBS. Remove the PBS and repeat. […] Take up lysate with a pipettor and add to a 30 mL centrifuge tube on ice. Vortex the tubes for 30-60 seconds and then centrifuge for 10 minutes at 7000 rpm in a J-20 rotor which has been precooled to below 0° C. Recover the supernatants and combine them in a 250 mL tube and place on ice. Perform protein determination to measure the total quantity of protein per mL of solution. Aliquot the lysate into 1 mL fractions and store at −80° C.
# Coat Corning 96 well ELISA plates with 0.5 μg per well 28D4C10 antibody in a volume of 100 μl PBS overnight, at 4° C. and remove unbound antibody, 28D4C10, from wells by inverting plate to remove liquid. Wash 1× with distilled H2O by filling wells. Pat the plate on a paper towel to remove excess liquid.
# Add 150 μL of Blocking Buffer to each well. Incubate for 30 minutes at room temperature, with shaking and wash plate 3× with deionized water, then once with TBST. Pat plate on a paper towel to remove excess liquid and bubbles
# Dilute lysate in PBS (10 mg lysate/100 μL PBS). Add 100 μL of diluted lysate to each well. Shake at room temperature for 60 min. Wash plate 3× with deionized water, then once with TBST. Pat plate on a paper towel to remove excess liquid and bubbles.
# Add 80 μL Kinase Buffer to ELISA plate containing captured PDGFR.
# Dilute drugs/extracts 1:10 (unless specified otherwise) in TBS+10% DMSO in 96-well polypropylene plates. (i.e., 10 μL compound+90 μL (TBS+10% DMSO)). Add 10 μL diluted drugs/extracts to ELISA plate. […] Incubate for 30 minutes while shaking at room temperature.
# After 30 minutes stop reaction with addition of 10 μL of 200 mM EDTA pH 8.0 for 20 mM final in well. Wash 4× with deionized water, twice with TBST.
# Incubate 30-45 minutes at room temperature, with shaking. Wash plate 3× with deionized water, then once with TBST. Pat plate on a paper towel to remove excess liquid and bubbles.
# Incubate 30 minutes at room temperature with shaking. Wash plate 3× with deionized water, then once with TBST. Pat plate on a paper towel to remove excess liquid and bubbles.
# Add 100 μL of ABTS/H2O2 solution to each well. Incubate 10 to 30 minutes while shaking. Remove any bubbles. If necessary stop reaction with the addition of 100 μL of 0.2M HCl per well
# Read assay on Dynatech MR7000 ELISA reader.
# HER-2 = molecular target: T2, HER-2 (Homo sapiens, UniProt P04626); assay: Assay for modulation of HER-2 activity in whole cells (ELISA); type: cell-based; conditions: EGFR/HER-2chimera/#T3-C7 cell lines, EGF stimulated; read-out: HER-2 kinase IC50
# T2 construct: expressed in mouse 3T3 (clone C7) cells; P00533 (Epidermal growth factor receptor)
# Protocol: Using the following reagents, supplies, and method, the ability of compounds of the invention to affect the activity of HER-2 in whole cells in an ELISA format can be assigned.
# EGFR/HER-2chimera/#T3-C7 cell lines are used for this assay. Choose dishes having 80-90% confluence for the experiment. Collect cells by trypsinization and centrifuge at 1000 rpm at room temperature for 5 minutes.
# Resuspend cells in starve medium and count with trypan blue. Only viability above 90% is acceptable. Seed cells in starve medium at a density of 2,500 cells per well, 90 μL per well, in a 96 well microtiter plate. Incubate seeded cells in 5% CO2 at 37° C. overnight. Start the assay two days after seeding.
# Samples are diluted directly into a polypropylene plate containing starve-DMEM (non-sterile is okay). This dilution will be 1:10 or greater, depending on the samples being screened. The same amount of DMSO is put into the control wells. […] are then transferred to the cell plate at a 1:10 dilution (10 μL of sample and media into 90 μL of starve media). The final DMSO concentration will be 1% or lower.
# Ten samples are put into wells 2-11 of row A of the NUNC 96 well polypropylene plate. These wells contain straight starve-DMEM. For a 1:10 dilution, one would put 10 μL of drug into 90 μL of media. The rest of the wells (including the controls) will have a DMSO/media mixture. The percentage of DMSO in this mixture is determined by the first dilution factor, in this case 1:10. The DMSO concentration is therefore 10%. An equal amount of drug and media from row A is put into row B, containing DMSO and media. The same amount is then taken out and put into row C. This is repeated for all rows. These are 1:2 dilutions. All wells are then transferred to the cell plate at a 1:10 dilution (10 μL of sample and media into 90 μL of starve-DMEM. The final DMSO concentration will be 1% or lower. […]
# After a 2 hour incubation with the drug, add prepared EGF ligand to cells at 50 μL per well, for a final concentration of 50 nM. Positive control wells (8) receive the same amount of EGF. […] Incubate at 37° C. for 10 minutes.
# Remove drug, EGF, and DMEM by dumping in sink. Wash cells once with PBS.
# Transfer HNTG* to cells, 100 μL per well. Place on ice for 5 minutes. Meanwhile, remove blocking buffer from ELISA plate and wash as described above. With a pipette tip securely fitted to a micropipettor, scrape cells from plate and homogenize cell material by repeatedly aspirating and dispensing the HNTG* lysis buffer. Transfer lysate to a coated, blocked, washed ELISA plate. Alternatively, one may use a Costar transfer cartridge to transfer lysate to the ELISA plate. Incubate, shaking, at room temperature for one hour.
# Remove lysate by dumping in sink, then wash as described earlier. Transfer freshly diluted anti-phosphotyrosine (anti-Ptyr) antibody (1:3000 in TEST) to ELISA plate, 100 μL per well. Incubate, shaking, at room temperature, for 30 minutes.
# Remove anti-Ptyr antibody by dumping in sink, then wash as described earlier. Transfer freshly diluted BIOSOURCE antibody to ELISA plate, (1:8000 in TEST), 100 μL per well. Incubate, shaking, at room temperature for 30 minutes.
# Remove BIOSOURCE antibody by dumping in sink, then wash as described earlier. Transfer freshly prepared ABTS/H2O2 solution to ELISA plate, […]. Incubate 5-10 minutes while shaking. Remove any bubbles and if necessary, stop reaction with the addition of 100 μL of 0.2 M HCl per well.
# Read assay on Dynatech MR7000 ELISA reader. Test Filter: […]; Reference Filter: […]. A preferred template for the placement of controls in this experiment is provided below: […]
# T1 sequence (P09619 33-1106, species assumed): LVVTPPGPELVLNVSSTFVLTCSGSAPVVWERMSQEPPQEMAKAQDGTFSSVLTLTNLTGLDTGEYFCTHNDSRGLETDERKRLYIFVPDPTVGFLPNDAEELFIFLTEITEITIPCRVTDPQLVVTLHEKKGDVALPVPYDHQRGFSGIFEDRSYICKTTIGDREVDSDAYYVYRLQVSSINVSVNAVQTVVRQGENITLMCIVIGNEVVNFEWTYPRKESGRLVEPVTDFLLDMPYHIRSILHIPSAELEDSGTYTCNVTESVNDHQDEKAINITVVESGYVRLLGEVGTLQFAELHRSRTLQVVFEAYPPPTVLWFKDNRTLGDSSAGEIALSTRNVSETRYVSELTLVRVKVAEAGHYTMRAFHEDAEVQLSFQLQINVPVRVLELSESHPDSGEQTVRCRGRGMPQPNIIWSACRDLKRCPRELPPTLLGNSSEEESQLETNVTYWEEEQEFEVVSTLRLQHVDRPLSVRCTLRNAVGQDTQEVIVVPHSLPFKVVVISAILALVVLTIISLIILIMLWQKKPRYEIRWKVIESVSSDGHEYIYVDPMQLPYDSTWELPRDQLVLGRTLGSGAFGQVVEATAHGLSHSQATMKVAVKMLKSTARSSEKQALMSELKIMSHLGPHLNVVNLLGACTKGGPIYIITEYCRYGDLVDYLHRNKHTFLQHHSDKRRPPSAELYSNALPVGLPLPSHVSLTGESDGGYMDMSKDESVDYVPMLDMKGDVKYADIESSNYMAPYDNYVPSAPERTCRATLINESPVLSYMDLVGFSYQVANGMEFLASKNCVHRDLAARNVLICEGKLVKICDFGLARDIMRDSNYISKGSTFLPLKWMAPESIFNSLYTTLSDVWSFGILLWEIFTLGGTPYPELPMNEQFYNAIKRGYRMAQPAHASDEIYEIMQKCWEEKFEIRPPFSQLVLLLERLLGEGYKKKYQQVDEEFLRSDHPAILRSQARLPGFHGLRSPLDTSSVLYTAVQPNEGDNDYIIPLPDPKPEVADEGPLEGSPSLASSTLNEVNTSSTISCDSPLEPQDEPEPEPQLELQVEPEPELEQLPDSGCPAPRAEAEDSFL
# T2 sequence (P04626 720-987 limits assumed): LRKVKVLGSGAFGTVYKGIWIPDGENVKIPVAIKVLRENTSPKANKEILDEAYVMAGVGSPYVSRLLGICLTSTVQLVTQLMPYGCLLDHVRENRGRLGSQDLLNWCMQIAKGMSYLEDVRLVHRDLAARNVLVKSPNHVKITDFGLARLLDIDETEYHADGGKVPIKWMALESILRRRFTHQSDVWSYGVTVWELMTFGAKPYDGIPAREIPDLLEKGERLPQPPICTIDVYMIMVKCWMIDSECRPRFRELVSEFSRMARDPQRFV
IC50 (PDGFR) [µM],IC50 (HER-2) [nM],SMILES
> 20,370,Cc1c(C(=O)N2CCOCC2)c[nH]c1/C=C1\C(=O)Nc2ncnc(Nc3ccc(F)c(Cl)c3)c21 [Formula 31]
> 20,> 20000,Cc1cc(C(=O)N2CCOCC2)[nH]c1/C=C1\C(=O)N(C)c2ncnc(Nc3ccc(F)c(Cl)c3)c21 [Formula 34]
> 20,> 20000,Cc1cc(C(=O)N2CCN(C)CC2)[nH]c1/C=C1\C(=O)N(C)c2ncnc(Nc3ccc(F)c(Cl)c3)c21 [Formula 36]
> 20,1070,Cc1cc(C=C2C(=O)Nc3ncnc(Nc4ccc(F)c(Cl)c4)c32)[nH]c1C(=O)N1CCOCC1 [Formula 37]

# Reference: patent publication US6908930B2, “4-substituted 7-AZA-indolin-2-ones and their use as protein kinase inhibitors” (Sugen, Inc., priority 1999, dated 2005)
